Results from ChEMBL document CHEMBL5376002, “A Hybrid Antimicrobial Peptide Targeting Staphylococcus aureus with a Dual Function of Inhibiting Quorum Sensing Signaling and an Antibacterial Effect” (J Med Chem, 2023).
Converted amounts (≈) assume the structure as drawn. The source made the active and inactive calls. No cut-off for these calls is given here. Numbered stars: 1 amine (or outer) side, 2 acyl side, 3 side chain; on linkers, the order of the positions; unused ones are H or OH. Bridge positions count the residues as written; N and C are the ends. Square brackets hold non-standard residues; d marks the D form. Peptide text beside a SMILES is read from it. I, II: the chains in the order shown. X1 = O=C1CC([*:2])C(=O)N1CCCCCC(=O)[*:1]; Dab = NCC[C@H](N)C(=O)O

Assays:
Staphylococcus aureus [1] = experiment: Antibacterial activity against Staphylococcus aureus ATCC 6538p assessed as inhibition of bacterial growth incubated for 18 to 24 hrs; type: functional; details: time 18-24 hrs
Streptococcus mutans [2] = experiment: Antibacterial activity against Streptococcus mutans UA159 assessed as inhibition of bacterial growth incubated for 18 to 24 hrs; type: functional; details: time 18-24 hrs
RAW264.7 [3] = experiment: Cytotoxicity against mouse RAW264.7 cells assessed as cell viability incubated for 48 hrs by MTT assay; type: functional
[4] = tested on: Staphylococcus epidermidis; experiment: Bactericidal activity against Staphylococcus epidermidis ATCC 12228 assessed as inhibition of bacterial growth incubated for 18 to 24 hrs; type: functional; details: time 18-24 hrs
[5] = tested on: Staphylococcus saprophyticus; experiment: Antibacterial activity against Staphylococcus saprophyticus ATCC BAA-750 assessed as inhibition of bacterial growth incubated for 18 to 24 hrs; type: functional; details: time 18-24 hrs
Staphylococcus aureus [6] = experiment: Antibacterial activity against Staphylococcus aureus ATCC 12600 assessed as inhibition of bacterial growth incubated for 18 to 24 hrs; type: functional; details: time 18-24 hrs
Escherichia coli [7] = experiment: Antibacterial activity against Escherichia coli ATCC 25922 assessed as inhibition of bacterial growth incubated for 18 to 24 hrs; type: functional; details: time 18-24 hrs
Streptococcus mutans [8] = experiment: Bactericidal activity against Streptococcus mutans UA159 assessed as inhibition of bacterial growth incubated for 18 to 24 hrs; type: functional; details: time 18-24 hrs
Streptococcus mutans [9] = experiment: Antibacterial activity against Streptococcus mutans ATCC 25175 assessed as inhibition of bacterial growth incubated for 18 to 24 hrs; type: functional; details: time 18-24 hrs
[10] = tested on: Staphylococcus epidermidis; experiment: Antibacterial activity against Staphylococcus epidermidis ATCC 12228 assessed as inhibition of bacterial growth incubated for 18 to 24 hrs; type: functional; details: time 18-24 hrs
Staphylococcus aureus [11] = experiment: Bactericidal activity against Staphylococcus aureus ATCC 43300 assessed as inhibition of bacterial growth incubated for 18 to 24 hrs; type: functional; details: time 18-24 hrs
Streptococcus mutans [12] = experiment: Bactericidal activity against Streptococcus mutans ATCC 25175 assessed as inhibition of bacterial growth incubated for 18 to 24 hrs; type: functional; details: time 18-24 hrs
Streptococcus pneumoniae [13] = experiment: Bactericidal activity against Streptococcus pneumoniae ATCC 49619 assessed as inhibition of bacterial growth incubated for 18 to 24 hrs; type: functional; details: time 18-24 hrs
Streptococcus pneumoniae [14] = experiment: Antibacterial activity against Streptococcus pneumoniae ATCC 49619 assessed as inhibition of bacterial growth incubated for 18 to 24 hrs; type: functional; details: time 18-24 hrs
Staphylococcus aureus [15] = experiment: Bactericidal activity against Staphylococcus aureus ATCC 12600 assessed as inhibition of bacterial growth incubated for 18 to 24 hrs; type: functional; details: time 18-24 hrs
Escherichia coli [16] = experiment: Bactericidal activity against Escherichia coli ATCC 25922 assessed as inhibition of bacterial growth incubated for 18 to 24 hrs; type: functional; details: time 18-24 hrs
[17] = tested on: Staphylococcus saprophyticus; experiment: Bactericidal activity against Staphylococcus saprophyticus ATCC BAA-750 assessed as inhibition of bacterial growth incubated for 18 to 24 hrs; type: functional; details: time 18-24 hrs
Staphylococcus aureus [18] = experiment: Antibacterial activity against Staphylococcus aureus ATCC 43300 assessed as inhibition of bacterial growth incubated for 18 to 24 hrs; type: functional; details: time 18-24 hrs
Staphylococcus aureus [19] = experiment: Bactericidal activity against Staphylococcus aureus ATCC 6538p assessed as inhibition of bacterial growth incubated for 18 to 24 hrs; type: functional; details: time 18-24 hrs
RAW264.7 [20] = experiment: Cytotoxicity against mouse RAW264.7 cells assessed as cell viability upto 125 uM incubated for 48 hrs by MTT assay; type: functional, cell-based
Erythrocyte = experiment: Hemolytic activity in rat RBC assessed as hemolysis measured after 20 hrs; type: toxicity, cell-based
Staphylococcus aureus [21] = experiment: Antivirulence activity against Staphylococcus aureus assessed as downregulation of hla expression level at 1 to 100 uM incubated for 24 hrs by qRT-PCR analysis; type: functional, organism-based; details: dose 1-100 µM
Staphylococcus aureus [22] = experiment: Antivirulence activity against Staphylococcus aureus assessed as downregulation of psm-alpha expression level at 1 to 100 uM incubated for 24 hrs by qRT-PCR analysis; type: functional, organism-based; details: dose 1-100 µM
Staphylococcus aureus [23] = experiment: Antivirulence activity against Staphylococcus aureus assessed as downregulation of RNAIII expression level at 1 to 100 uM incubated for 24 hrs by qRT-PCR analysis; type: functional, organism-based; details: dose 1-100 µM
Staphylococcus aureus [24] = experiment: Inhibition of biofilm formation in Staphylococcus aureus at 0.78 to 1.56 uM incubated for 24 hrs by crystal violet staining based analysis; type: functional, organism-based; details: dose 0.78-1.56 µM

MIC (Staphylococcus aureus [1]) | MIC (Streptococcus mutans [2]) | MIC [5] | MIC (Staphylococcus aureus [6]) | MIC (Escherichia coli [7]) | MIC (Streptococcus mutans [9]) | MIC [10] | MIC (Streptococcus pneumoniae [14]) | MIC (Staphylococcus aureus [18]) | Compound | CC50 (RAW264.7 [3]) | MBC [4] | MBC (Streptococcus mutans [8]) | MBC (Staphylococcus aureus [11]) | MBC (Streptococcus mutans [12]) | MBC (Streptococcus pneumoniae [13]) | MBC (Staphylococcus aureus [15]) | MBC (Escherichia coli [16]) | MBC [17] | MBC (Staphylococcus aureus [19]) | other results
6.25 µM (≈ 17.9 µg/mL) | 6.25 µM (≈ 17.9 µg/mL) | 6.25 µM (≈ 17.9 µg/mL) | 6.25 µM (≈ 17.9 µg/mL) | 6.25 µM (≈ 17.9 µg/mL) | 3.13 µM (≈ 8.96 µg/mL) | 3.13 µM (≈ 8.96 µg/mL) | 12.5 µM (≈ 35.8 µg/mL) | 6.25 µM (≈ 17.9 µg/mL) | CC[C@H](C)[C@H](NC(=O)CNC(=O)CCCCCN1C(=O)CC(SC[C@H](N)C(=O)NCC(=O)NCC(=O)N[C@H](C(=O)N[C@@H](CC(N)=O)C(=O)N[C@H]2CCNC(=O)[C@H](CC(C)C)NC(=O)[C@H](CC(C)C)NC(=O)[C@H](Cc3ccccc3)NC(=O)[C@H](C)NC2=O)[C@@H](C)CC)C1=O)C(=O)N[C@@H](CCCCN)C(=O)N[C@@H](CC(N)=O)C(=O)N[C@@H](C)C(=O)N[C@@H](Cc1c[nH]c2ccccc12)C(=O)N[C@@H](CCCCN)C(=O)N[C@@H](C)C(=O)N[C@@H](CCSC)C(=O)N[C@H](C(=O)N[C@@H](CCCCN)C(=O)N[C@@H](C)C(=O)N[C@@H](Cc1c[nH]c2ccccc12)C(=O)N[C@@H](Cc1ccc(O)cc1)C(=O)O)[C@@H](C)CC (stereo partly drawn) (I: GIKNAWKAMIKAWY-OH / II: H-CGGIN[Dab]AFLL; linker I:N-II:1 via X1; lactam II:6-II:C) | 105 µM | 6.13 µM (≈ 17.5 µg/mL) | 12.5 µM (≈ 35.8 µg/mL) | 12.5 µM (≈ 35.8 µg/mL) | 3.13 µM (≈ 8.96 µg/mL) | 12.5 µM (≈ 35.8 µg/mL) | 6.25 µM (≈ 17.9 µg/mL) | 6.25 µM (≈ 17.9 µg/mL) | 12.5 µM (≈ 35.8 µg/mL) | 6.25 µM (≈ 17.9 µg/mL) | 
6.25 µM | 6.25 µM | 6.25 µM | 6.25 µM | 6.25 µM | 6.25 µM | 3.13 µM | 12.5 µM | 6.25 µM | H-IKNAWKAMIKAWY-OH | > 125 µM | 3.13 µM | 25 µM | 12.5 µM | 12.5 µM | 12.5 µM | 6.25 µM | 6.25 µM | 12.5 µM | 6.25 µM | Activity (RAW264.7 [20]): inactive
0.1 µM (≈ 0.0349 µg/mL) | 12.5 µM (≈ 4.37 µg/mL) | 1.56 µM (≈ 0.545 µg/mL) | 0.1 µM (≈ 0.0349 µg/mL) | > 100 µM | 6.25 µM (≈ 2.18 µg/mL) | 0.39 µM (≈ 0.136 µg/mL) | 0.78 µM (≈ 0.273 µg/mL) | > 100 µM | CC1(C)S[C@@H]2[C@H](NC(=O)[C@H](N)c3ccccc3)C(=O)N2[C@H]1C(=O)O [AMPICILLIN] |  | 0.39 µM (≈ 0.136 µg/mL) | 12.5 µM (≈ 4.37 µg/mL) |  | 6.25 µM (≈ 2.18 µg/mL) | 0.78 µM (≈ 0.273 µg/mL) | 0.19 µM (≈ 0.0664 µg/mL) |  | 1.56 µM (≈ 0.545 µg/mL) | 0.19 µM (≈ 0.0664 µg/mL) | 

Compound | MIC (Staphylococcus aureus [1]) | MIC (Streptococcus mutans [2]) | MIC [5] | MIC (Staphylococcus aureus [6]) | MIC (Escherichia coli [7]) | MIC (Streptococcus mutans [9]) | MIC [10] | MIC (Streptococcus pneumoniae [14]) | MIC (Staphylococcus aureus [18]) | CC50 (RAW264.7 [3]) | MBC [4] | MBC (Streptococcus mutans [8]) | MBC (Staphylococcus aureus [11]) | MBC (Streptococcus mutans [12]) | MBC (Streptococcus pneumoniae [13]) | MBC (Staphylococcus aureus [15]) | MBC (Escherichia coli [16]) | MBC [17] | MBC (Staphylococcus aureus [19]) | other results
H-LGAKAGGGIKNLWKKMIKLWY-OH | 3.13 µM | 6.25 µM | 3.13 µM | 3.13 µM | 6.25 µM | 3.13 µM | 1.56 µM | 6.25 µM | 6.25 µM |  | 3.13 µM | 6.25 µM | 6.25 µM | 3.13 µM | 25 µM | 3.13 µM | 12.5 µM | 6.25 µM | 3.13 µM | Activity (Erythrocyte): Non-Toxic; Activity (Staphylococcus aureus [21]): inactive; Activity (Staphylococcus aureus [22]): inactive; Activity (Staphylococcus aureus [23]): inactive; inhibition (Staphylococcus aureus [24]): Active
